Test results published in US10570129B2 (Zoetis Services LLC, priority 2015, dated 2020).

Tests used:
Haemonchus contortus L3 = assay: microbe, parasite or virus in culture; format: cell-based; settings: for minimal effective concentration: Haemonchus contortus, 96 h, read-out: HcL3 Minimal Effective Concentration (MEC)
D. immitis microfilariae = assay: Dirofilaria immitis, microfilariae (DiMF) in vitro motility assay; format: cell-based; settings: for minimal effective concentration: Dirofilaria immitis, 72 h, read-out: DiMF minimally effective dose (MEC)

Row | Compound | minimal effective concentration (Haemonchus contortus L3) | minimal effective concentration (D. immitis microfilariae) | HcL3 Minimal Effective Concentration (MEC) (Haemonchus contortus L3) | DiMF minimally effective dose (MEC) (D. immitis microfilariae; decrease in microfilariae motility by subjective visual assessment, observed at 72 hours)
1 | N#Cc1ccc2c(c1)c1c(n2C(=O)NCc2ccnc(Cl)c2)CCN(C/C=C/c2cc(F)c(Cl)c(F)c2)C1 [Example 71, (E)-2-(3-(4-chloro-3,5-difluorophenyl)allyl)-N-((2-chloropyridin-4-yl)methyl)-8-cyano-1,2,3,4-tetrahydro-5H-pyrido[4,3-b]indole-5-carboxamide] | 0.2 µM | > 100 µM | – | –
2 | N#Cc1ccc2c(c1)c1c(n2C(=O)NCc2ccnc(F)c2)CCN(C/C=C/c2ccc(Cl)cc2Cl)C1 [Example 101, (E)-8-cyano-2-(3-(2,4-dichlorophenyl)allyl)-N-((2-fluoropyridin-4-yl)methyl)-1,2,3,4-tetrahydro-5H-pyrido[4,3-b]indole-5-carboxamide] | 0.2 µM | 24 µM | – | –
3 | COc1ccc(/C=C/CN2CCc3c(c4ccc(OC(F)(F)F)cc4n3C(=O)NCc3ccnc(Cl)c3)C2)cc1 [Example 358, (E)-N-((2-chloropyridin-4-yl)methyl)-2-(3-(4-methoxyphenyl)allyl)-7-(trifluoromethoxy)-1,2,3,4-tetrahydro-5H-pyrido[4,3-b]indole-5-carboxamide] | 1.3 µM | 7.6 µM | – | –
4 | N#Cc1ccc2c3c(n(C(=O)NCc4ccnc(Cl)c4)c2c1)CCN(C/C=C/c1ccc(F)c(Cl)c1)C3 [Example 27, (E)-2-(3-(3-chloro-4-fluorophenyl)allyl)-N-((2-chloropyridin-4-yl)methyl)-7-cyano-1,2,3,4-tetrahydro-5H-pyrido[4,3-b]indole-5-carboxamide] | 1.8 µM | 1.8 µM | – | –
5 | O=C(NCc1ccnc(Cl)c1)n1c2c(c3ccc(OC(F)(F)F)cc31)CN(C/C=C/c1ccc(Cl)cc1Cl)CC2 [Example 337, (E)-N-((2-chloropyridin-4-yl)methyl)-2-(3-(2,4-dichlorophenyl)allyl)-7-(trifluoromethoxy)-1,2,3,4-tetrahydro-5H-pyrido[4,3-b]indole-5-carboxamide] | 1 µM | 18.2 µM | – | –
6 | O=C(NCc1ccnc(O)c1)n1c2c(c3cc(C(F)(F)F)ccc31)CN(C/C=C/c1ccc(F)cc1F)CC2 [Example 453, (E)-2-(3-(2,4-difluorophenyl)allyl)-N-((2-hydroxypyridin-4-yl)methyl)-8-(trifluoromethyl)-1,2,3,4-tetrahydro-5H-pyrido[4,3-b]indole-5-carboxamide] | > 100 µM | 10 µM | – | –
7 | N#Cc1ccc2c3c(n(C(=O)NCc4ccnc(Cl)c4)c2c1)CCN(C/C=C/c1ccc(Cl)c(F)c1F)C3 [Example 15, (E)-2-(3-(4-chloro-2,3-difluorophenyl)allyl)-N-((2-chloropyridin-4-yl)methyl)-7-cyano-1,2,3,4-tetrahydro-5H-pyrido[4,3-b]indole-5-carboxamide] | 1 µM | > 100 µM | – | –
8 | O=C(NCc1ccnc(Cl)c1)n1c2c(c3cc(Cl)ccc31)CN(C/C=C/c1ccc(F)cc1Cl)CC2 [Example 237, (E)-8-chloro-2-(3-(2-chloro-4-fluorophenyl)allyl)-N-((2-chloropyridin-4-yl)methyl)-1,2,3,4-tetrahydro-5H-pyrido[4,3-b]indole-5-carboxamide] | 0.03 µM | 1.8 µM | – | –
9 | O=C(NCc1ccnc(Cl)c1)n1c2c(c3ccc(OC(F)(F)F)cc31)CN(C/C=C/c1cc(F)c(F)c(F)c1)CC2 [Example 350, (E)-N-((2-chloropyridin-4-yl)methyl)-7-(trifluoromethoxy)-2-(3-(3,4,5-trifluorophenyl)allyl)-1,2,3,4-tetrahydro-5H-pyrido[4,3-b]indole-5-carboxamide] | 0.2 µM | 1.3 µM | – | –
10 | Cc1ccc2c(c1)c1c(n2C(=O)NCc2ccnc(Cl)c2)CCN(C/C=C/c2ccc(F)cc2)C1 [Example 433, (E)-N-((2-chloropyridin-4-yl)methyl)-2-(3-(4-fluorophenyl)allyl)-8-methyl-1,2,3,4-tetrahydro-5H-pyrido[4,3-b]indole-5-carboxamide] | 0.5 µM | 5.7 µM | – | –
11 | N#Cc1ccc2c(c1)c1c(n2C(=O)NCc2ccnc(Cl)c2)CCN(C/C=C/c2ccc(F)c(Br)c2)C1 [Example 79, (E)-2-(3-(3-bromo-4-fluorophenyl)allyl)-N-((2-chloropyridin-4-yl)methyl)-8-cyano-1,2,3,4-tetrahydro-5H-pyrido[4,3-b]indole-5-carboxamide] | 0.3 µM | > 100 µM | – | –
12 | Cc1ccc2c3c(n(C(=O)NCc4ccnc(Cl)c4)c2c1)CCN(C/C=C/c1ccc(Cl)cc1)C3 [Example 146, (E)-2-(3-(4-chlorophenyl)allyl)-N-((2-chloropyridin-4-yl)methyl)-7-methyl-1,2,3,4-tetrahydro-5H-pyrido[4,3-b]indole-5-carboxamide] | 0.4 µM | 10 µM | – | –
13 | N#Cc1ccc2c(c1)c1c(n2C(=O)NCc2ccnc(O)c2)CCN(C/C=C/c2ccc(Br)cc2F)C1 [Example 451, (E)-2-(3-(4-bromo-2-fluorophenyl)allyl)-8-cyano-N-((2-hydroxypyridin-4-yl)methyl)-1,2,3,4-tetrahydro-5H-pyrido[4,3-b]indole-5-carboxamide] | > 100 µM | 3.3 µM | – | –
14 | COc1cc2c3c(n(C(=O)NCc4ccnc(Cl)c4)c2cc1C#N)CCN(C/C=C/c1ccc(Cl)cc1)C3 [Example 493, (E)-2-(3-(4-chlorophenyl)allyl)-N-((2-chloropyridin-4-yl)methyl)-7-cyano-8-methoxy-1,2,3,4-tetrahydro-5H-pyrido[4,3-b]indole-5-carboxamide] | 1 µM | 5.7 µM | – | –
15 | N#Cc1ccc2c(c1)c1c(n2C(=O)NCc2ccnc(Cl)c2)CCN(C/C=C/c2cc(F)cc(F)c2)C1 [Example 90, (E)-N-((2-chloropyridin-4-yl)methyl)-8-cyano-2-(3-(3,5-difluorophenyl)allyl)-1,2,3,4-tetrahydro-5H-pyrido[4,3-b]indole-5-carboxamide] | 0.1 µM | 3.3 µM | – | –
16 | CCOc1cc2c(cc1Br)c1c(n2C(=O)NCc2ccnc(Cl)c2)CCN(C/C=C/c2ccc(Cl)cc2)C1 [Example 468, (E)-8-bromo-2-(3-(4-chlorophenyl)allyl)-N-((2-chloropyridin-4-yl)methyl)-7-ethoxy-1,2,3,4-tetrahydro-5H-pyrido[4,3-b]indole-5-carboxamide] | 0.2 µM | 1.8 µM | – | –
17 | N#Cc1cccc2c1c1c(n2C(=O)NCc2ccnc(Cl)c2)CCN(C/C=C/c2ccc(F)cc2Cl)C1 [Example 25, (E)-2-(3-(2-chloro-4-fluorophenyl)allyl)-N-((2-chloropyridin-4-yl)methyl)-9-cyano-1,2,3,4-tetrahydro-5H-pyrido[4,3-b]indole-5-carboxamide] | > 100 µM | 33 µM | – | –
18 | O=C(NCc1ccnc(F)c1)n1c2c(c3cc(F)c(Cl)cc31)CN(C/C=C/c1ccc(F)cc1)CC2 [Example 319, (E)-7-chloro-8-fluoro-2-(3-(4-fluorophenyl)allyl)-N-((2-fluoropyridin-4-yl)methyl)-1,2,3,4-tetrahydro-5H-pyrido[4,3-b]indole-5-carboxamide] | 10 µM | 10 µM | – | –
19 | N#Cc1ccc(/C=C/CN2CCc3c(c4c(C(F)(F)F)cc(F)cc4n3C(=O)NCc3ccnc(Cl)c3)C2)cc1 [Example 320, (E)-N-((2-chloropyridin-4-yl)methyl)-2-(3-(4-cyanophenyl)allyl)-7-fluoro-9-(trifluoromethyl)-1,2,3,4-tetrahydro-5H-pyrido[4,3-b]indole-5-carboxamide] | 3.3 µM | 18.2 µM | – | –
20 | N#Cc1ccc2c(c1)c1c(n2C(=O)NCc2ccnc(F)c2)CCN(C/C=C/c2cc(F)ccc2Br)C1 [Example 107, (E)-2-(3-(2-bromo-5-fluorophenyl)allyl)-8-cyano-N-((2-fluoropyridin-4-yl)methyl)-1,2,3,4-tetrahydro-5H-pyrido[4,3-b]indole-5-carboxamide] | 0.5 µM | 1.8 µM | – | –
21 | Cc1cc2c(cc1Br)c1c(n2C(=O)NCc2ccnc(Cl)c2)CCN(C/C=C/c2ccc(Cl)cc2)C1 [Example 194, (E)-8-bromo-2-(3-(4-chlorophenyl)allyl)-N-((2-chloropyridin-4-yl)methyl)-7-methyl-1,2,3,4-tetrahydro-5H-pyrido[4,3-b]indole-5-carboxamide] | 0.4 µM | 5.7 µM | – | –
22 | N#Cc1ccc(/C=C/CN2CCc3c(c4cc(F)c(C#N)cc4n3C(=O)NCc3ccnc(Cl)c3)C2)cc1 [Example 173, (E)-N-((2-chloropyridin-4-yl)methyl)-7-cyano-2-(3-(4-cyanophenyl)allyl)-8-fluoro-1,2,3,4-tetrahydro-5H-pyrido[4,3-b]indole-5-carboxamide] | 18.2 µM | > 100 µM | – | –
23 | (E)-N-((2-chloropyridin-4-yl)methyl)-2-(3-(3,4-dichlorophenyl)allyl)-8-(pyrrolidin-1-yl)-1,2,3,4-tetrahydro-5H-pyrido[4,3-b]indole-5-carboxamide [Example 507] | – | – | 10.0 µM | 13.5 µM
24 | O=C(NCc1ccnc(Cl)c1)n1c2c(c3cccc(Cl)c31)CN(C/C=C/c1ccc(OC(F)(F)F)cc1)CC2 [Example 271, (E)-6-chloro-N-((2-chloropyridin-4-yl)methyl)-2-(3-(4-(trifluoromethoxy)-phenyl)allyl)-1,2,3,4-tetrahydro-5H-pyrido[4,3-b]indole-5-carboxamide] | > 100 µM | 5.7 µM | – | –
25 | N#Cc1ccc2c3c(n(C(=O)NCc4ccnc(Cl)c4)c2c1)CCN(C/C=C/c1ccc(F)c(F)c1)C3 [Example 28, (E)-N-((2-chloropyridin-4-yl)methyl)-7-cyano-2-(3-(3,4-difluorophenyl)allyl)-1,2,3,4-tetrahydro-5H-pyrido[4,3-b]indole-5-carboxamide] | 1.8 µM | 4.4 µM | – | –
